Experimental data as given in PMC3618599 (Clinical cancer research : an official journal of the …, 2013).

Tests used:
[1] = Vorinostat, VG and VA serum pharmacokinetics; format: in vivo, human; settings: for Change in Tmax, Cmax, and AUC0-8h: DSI schedule, day 1 or day 4, alvocidib escalated over 10–40 mg/m^2
[2] = system: patients with relapsed, refractory, or poor prognosis acute leukemia, or RAEB-2; assay: Phase I 3+3 dose escalation: DLT and MTD of alvocidib combined with vorinostat; format: in vivo, human
[3] = Alvocidib plasma pharmacokinetics; format: in vivo, human; settings: for Overall mean CL of alvocidib: initial dose, geometric mean ± SD
[4] = cited from earlier work
solid tumor patients = settings: cited from earlier work
[5] = days 2 and 16, 28-day cycles, with vorinostat 800 mg
[6] = vorinostat 200 mg orally with alvocidib

## O=C(O)CCC(=O)Nc1ccccc1 [VA, 4-anilino-4-oxobutanoic acid]
[1]
  Change in Tmax, Cmax, and AUC0-8h: no change

## O=C(CCCCCCC(=O)Nc1ccccc1)NO[C@@H]1O[C@H](C(=O)O)[C@@H](O)[C@H](O)[C@H]1O [VG, vorinostat glucuronide]
[1]
  Change in Tmax, Cmax, and AUC0-8h: no change
[1]; WLMI schedule
  AUC lower with 60 mg/m^2 compared to 40 mg/m^2 alvocidib dose: 50%
  Cmax lower with 60 mg/m^2 compared to 40 mg/m^2 alvocidib dose: 50%

## CN1CC[C@H](c2c(O)cc(O)c3c(=O)cc(-c4ccccc4Cl)oc23)[C@H](O)C1 [alvocidib, flavopiridol]
[2]; 4-h maintenance infusion, days 1 and 8 of 21-day cycle (WLMI), with vorinostat 200 mg orally TID days 1–14
  MTD, alvocidib maintenance infusion: 20 mg/m^2
[2]; 30-min loading infusion, days 1 and 8 of 21-day cycle (WLMI), with vorinostat 200 mg orally TID days 1–14
  MTD, alvocidib loading infusion: 20 mg/m^2
[3]; daily and weekly infusion schedules, on average
  Plasma concentration immediately before dosing on days 4 or 8 (accumulation): < 1 % of the subsequent Cmax
[3]; day 4 dose, DSI schedule, after vorinostat 200 mg TID for 3 days
  Mean CL of alvocidib: 9.9 ± 5.4 L/h/m^2
[3]; day 8 dose, WLMI schedule, after vorinostat 200 mg TID for 7 days
  Mean CL of alvocidib: 11.0 ± 3.9 L/h/m^2
[3]; DSI schedule
  Overall mean CL of alvocidib: 13.0 ± 4.8 L/h/m^2
[3]; WLMI schedule
  Overall mean CL of alvocidib: 12.2 ± 5.3 L/h/m^2
[4]
  Binding to plasma proteins: highly bound
Solid tumor patients; [5]
  MTD, alvocidib given over 4 h: 30 mg/m^2
  MTD, alvocidib initial 30 min infusion: 30 mg/m^2

## O=C(CCCCCCC(=O)Nc1ccccc1)NO [vorinostat, Vorinostat]
[2]; TID, with alvocidib WLMI 20/20 mg/m^2
  MTD for this regimen, vorinostat: 200 mg
[1]
  Change in Tmax, Cmax, and AUC0-8h: no change
[1]; [6]
  Vorinostat AUC higher, WLMI compared to DSI schedule: 25–50%
  Vorinostat Cmax higher, WLMI compared to DSI schedule: 25–50%
Solid tumor patients; days 1–3 and 15–17, 28-day cycles, with alvocidib WLMI
  MTD, vorinostat: 800 mg
